Test results reported in PMC5166496 (International Journal of Biological Sciences, 2016).

Molecular target: T1, SIRT1 (Homo sapiens, UniProt Q96EB6)
T1 sequence (Q96EB6 2-747): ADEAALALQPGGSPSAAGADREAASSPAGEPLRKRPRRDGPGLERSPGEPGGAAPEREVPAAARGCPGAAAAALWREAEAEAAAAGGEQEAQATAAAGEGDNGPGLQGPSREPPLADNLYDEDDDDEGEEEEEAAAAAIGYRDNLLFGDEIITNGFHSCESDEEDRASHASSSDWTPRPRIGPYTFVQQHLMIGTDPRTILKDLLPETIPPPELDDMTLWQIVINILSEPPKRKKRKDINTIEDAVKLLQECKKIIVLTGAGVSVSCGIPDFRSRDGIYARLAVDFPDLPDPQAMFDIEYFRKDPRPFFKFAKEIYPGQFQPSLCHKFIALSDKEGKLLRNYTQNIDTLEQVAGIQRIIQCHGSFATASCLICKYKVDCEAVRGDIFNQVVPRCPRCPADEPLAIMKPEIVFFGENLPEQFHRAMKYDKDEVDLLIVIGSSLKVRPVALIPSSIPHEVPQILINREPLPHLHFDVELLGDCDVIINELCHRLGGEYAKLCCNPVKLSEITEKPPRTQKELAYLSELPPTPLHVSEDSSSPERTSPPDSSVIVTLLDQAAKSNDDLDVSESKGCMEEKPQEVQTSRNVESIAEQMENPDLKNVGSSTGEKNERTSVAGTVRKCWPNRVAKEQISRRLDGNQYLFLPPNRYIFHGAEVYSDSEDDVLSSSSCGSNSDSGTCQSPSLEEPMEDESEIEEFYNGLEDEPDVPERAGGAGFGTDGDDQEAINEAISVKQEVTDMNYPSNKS
Assay: SensoLyte […] fluorimetric SIRT1 deacetylase activity assay kit
Type: biochemical

Compound `CC(C)(C)c1cc(C=C2C(=O)NC(=S)NC2=O)cc(C(C)(C)C)c1O` [MHY2256, 5-(3,5-Di-tert-butyl-4-hydroxybenzylidene)-2-thioxodihydropyrimidine-4,6(1H,5H)-dione] has an IC50 of 270 µM.
